In patent publication US20240174637A1, “DEGRADERS OF GRK2 AND USES THEREOF” (Sonata Therapeutics, Inc., priority 2021, published 2024) one finds IC50 and inhibition data, which are given here for 14 molecules.

Read-outs that look alike come from different tables or passages of the source.

The target in assay [1] is T1, GRK2 (Homo sapiens, UniProt P25098).
T1 sequence (P25098 1-689): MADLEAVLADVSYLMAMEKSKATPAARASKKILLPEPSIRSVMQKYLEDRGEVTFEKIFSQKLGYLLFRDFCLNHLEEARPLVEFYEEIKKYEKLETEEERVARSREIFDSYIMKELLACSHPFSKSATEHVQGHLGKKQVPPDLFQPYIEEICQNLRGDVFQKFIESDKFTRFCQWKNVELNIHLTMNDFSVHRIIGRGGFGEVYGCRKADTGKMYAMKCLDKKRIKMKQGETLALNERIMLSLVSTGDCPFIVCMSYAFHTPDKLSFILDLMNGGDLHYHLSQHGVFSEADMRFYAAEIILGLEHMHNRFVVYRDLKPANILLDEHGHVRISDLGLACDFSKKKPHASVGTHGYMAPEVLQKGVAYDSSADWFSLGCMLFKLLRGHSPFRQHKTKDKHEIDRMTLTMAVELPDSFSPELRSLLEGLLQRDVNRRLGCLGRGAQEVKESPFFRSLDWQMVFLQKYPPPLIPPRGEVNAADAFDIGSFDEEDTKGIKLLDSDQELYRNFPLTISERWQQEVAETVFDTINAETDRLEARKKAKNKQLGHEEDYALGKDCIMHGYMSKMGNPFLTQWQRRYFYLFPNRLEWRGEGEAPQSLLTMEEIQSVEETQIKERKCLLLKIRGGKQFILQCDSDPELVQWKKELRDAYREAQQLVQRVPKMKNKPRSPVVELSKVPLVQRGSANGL
The assay can be described thus: Second ADPGlo GRK2 Inhibition Assay (Example 3). The assay is classed as biochemical. Conditions: ADP-Glo, 20 μM ATP; read-out: Second ADPGlo Enzymatic GRK2 Assay: IC50 (nM) (Example 3). As for the experimental part:
Assay: GRK2 (2 nM) was incubated with ATP (20 μM) and GRKtide (1.2 mg/mL) in 11 μL of assay buffer (see above) for 180 min at room temperature. Compounds were dissolved in 100% DMSO, serially diluted 3.16-fold from 100 μM with 10 concentration points and transferred as 100× into assay plate (final compounds concentration in the reaction plate from 1 μM).
Materials: GRK2 was purchased from SignalChem (Cat #A14-10G, Lot #X645-3). Substrate GRKtide was from SignalChem (Cat #G46-58, Lot #R339-6). ADP-Glo Kinase Assay from Promega (Cat #V9102). Assay buffer consisted of 20 mM HEPES (pH7.5), 20 mM MgCl2, 0.01% Tween-20, 0.05 mM DDT. 384-well white plates were from Corning (Cat #4513).
HTS protocol: Add 5.5 μL of 2× substrate-enzyme mix into all columns except of 1-2 and 24 of reaction plate. Spin 15 seconds at 200 g. Transfer 1 ul of compounds from the plate with serial dilutions (384 well plate with 22 uL of compound in columns 3-22/DMSO solution 1-2,23-24) to Dilution plate (384 well plate with 49 uL of buffer with 2×40 μM ATP). After mixing transfer 5.5 ul from Dilution plate to Reaction plate (to 5.5 μL of 2× substrate-enzyme mix). Spin 15 seconds at 200 g and incubate for 180 min at room temperature with sealing. Add 3 μL ADP-Glo reagent to all the wells. Spin 15 seconds at 200 g and incubate for 40 min at room temperature. Add 6 μL Detection solution to all the wells. Incubate for 30 min at room temperature. Read plate using ClarioStar Plus (BMG).
Data Analysis: Data were analyzed in GraphPad Prism 5.0.2. Each HTS plate contains compounds in columns 3-22, controls (enzyme, no compound) in column 23, and blanks (no enzyme) in columns 2. HTS percent inhibition was calculated for each compound from the signal in luminescence units and the mean of the plate controls and the mean of the plate blanks using the following equation: % Inhibition=100*(1-(signal-blank mean)/(control mean-blank mean)).

Assay [2] addresses T1, GRK2. In words: GRK2 Degradation Assay and Western Blot in PAXF1657 cells. The assay is classed as cell-based. On the set-up: endogenous in cells; host or cells: PAXF1657. The procedure, abridged:
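PAXF1657 cells grown to 70% confluency, then treated with compounds at 0–10 μM for 6 to 24 h at 37 °C. Lysates in PBS with 1% NP40 run on SDS-PAGE. GRK2 protein detected by western blot with β-actin as loading reference, using ECL chemiluminescence.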

Assay [3] concerns PAXF1657 EV. In words: 7-day cellular proliferation assay (CellTiter-Glo), PAXF1657 EV. The assay is classed as cell-based. The procedure, abridged: (§1)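 PAXF1657 pancreatic cancer cells (GRK2-overexpressing vs empty vector; CRISPR GRK2 knockout vs non-targeting control) were seeded at 500 cells/well in RPMI1640/10% FBS, then given a 10-point series, 30 μM-0.0002 μM in 0.3% DMSO. Medium and compound were refreshed after 3 days; CellTiter-Glo luminescence was read at day 7.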

Assay [4] relates to PAXF1657 KO Clone #4. In words: 7-day cellular proliferation assay (CellTiter-Glo), PAXF1657 KO Clone #4. The assay is classed as cell-based. The procedure, abridged:
as §1

Assay [5] deals with T1, GRK2. In words: GRK2 Inhibition Assay (TR-FRET, Example 1). Conditions: Table 4; Example 1 assay; read-out: Enzymatic GRK2 IC50: Av IC50 GRK2. The class given is biochemical. The procedure, abridged:
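GRK2 (1 nM) pre-incubated 30 min RT with compounds in HEPES/MgCl2/DTT/Tween-20/EGTA buffer, then reacted 90 min RT with 7 μM ATP and 50 nM ULight-TopoIIα substrate. Stopped with EDTA plus Eu anti-TopoIIα antibody; TR-FRET read after 60 min.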

Where [6] appears, read: Conc 0.3 uM, read-out: Degradation Assay - 3 point: Degradation (%).
Where [7] appears, read: Conc 1 uM, read-out: Degradation Assay - 3 point: Degradation (%).
The mark [8] stands for this setting: Conc 3 uM, read-out: Degradation Assay - 3 point: Degradation (%).
Setting [9] is: proliferation, read-out: GeoMean IC50 (UM) PAXF1657 EV.
The mark [10] stands for this setting: proliferation, read-out: GeoMean IC50 (uM) PAXF1657 KO Clone #4.

Regarding `Cn1c(CNc2cccc(C(=O)NCc3cccc(OCCCCCCOCCOCCCCCC(=O)Nc4cccc5c4CN(C4CCC(=O)NC4=O)C5=O)c3)c2)nnc1-c1ccncn1` (stereo not drawn) [Compound D52], the IC50 in assay [1] is < 100 nM.
On to `Cn1c(CNc2cccc(C(=O)NCc3cccc(OCCCCCCOCCOCCOCCCC(=O)Nc4cccc5c4CN(C4CCC(=O)NC4=O)C5=O)c3)c2)nnc1-c1ccncn1` (stereo not drawn) [Compound D56], for which, in assay [2] (0.3 uM, PAXF1657 EV, 24 hrs, read-out: % GRK2 degradation at 0.3 uM in PAXF1657 EV (24 hrs)), the inhibition at 0.3 µM was 25%. In addition, in assay [2] (1 uM, PAXF1657 EV, 24 hrs, read-out: % GRK2 degradation at 1 uM in PAXF1657 EV (24 hrs)), the inhibition at 1 µM turned out to be 52%. Moreover, the inhibition at 3 µM in assay [2] (3 uM, PAXF1657 EV, 24 hrs, read-out: % GRK2 degradation at 3 uM in PAXF1657 EV (24 hrs)) worked out at 64%. Besides, the IC50 in assay [1] was < 100 nM; in assay [3] (168 h, 7-day, read-out: 7-day proliferation assay: IC50 GeoMean (uM) [Cell Line: PAXF1657 EV]), 1 to 10 µM; in assay [4] (168 h, 7-day, read-out: 7-day proliferation assay: IC50 GeoMean (uM) [Cell Line: PAXF1657 KO Clone #4]) it was > 10 µM.
In the case of `COc1cc(OCCNC(=O)CCOCCOCCOCCNC(=O)Nc2cccc3c2CN(C2CCC(=O)NC2=O)C3=O)ccc1CNC(=O)c1cccc(NCc2nnc(-c3ccncn3)n2C)c1` (stereo not drawn) [Compound D68], the IC50 in assay [1] is > 1000 nM.
The same measure, in the same setting: to `Cn1c(CNc2cccc(C(=O)NCc3cccc(OCCCCCCC(=O)Nc4cccc5c4CN(C4CCC(=O)NC4=O)C5=O)c3)c2)nnc1-c1ccncn1` (stereo not drawn) [Compound D69] belongs < 100 nM; to `Cn1c(CNc2cccc(C(=O)NCc3cccc(OCCCC(=O)Nc4cccc5c4CN(C4CCC(=O)NC4=O)C5=O)c3)c2)nnc1-c1ccncn1` (stereo not drawn) [Compound D70], < 100 nM.
The same measure, in the same setting: to `Cc1ncsc1-c1ccc(CNC(=O)[C@@H]2C[C@@H](O)CN2C(=O)[C@@H](NC(=O)CCCCCOCCOCCCCCCOc2cccc(CNC(=O)c3cccc(NCc4nnc(-c5ccncn5)n4C)c3)c2)C(C)(C)C)cc1` [Compound D76] belongs < 100 nM.
Take `COc1cc(OCCNC(=O)CCCCCC(=O)N[C@H](C(=O)C2C[C@H](O)C[C@H]2C(=O)NCc2ccc(-c3scnc3C)cc2)C(C)(C)C)ccc1CNC(=O)c1cccc(NCc2nnc(-c3ccncn3)n2C)c1` (stereo partly drawn) [Compound D93]: the IC50 in assay [1] was < 100 nM.
Still for that read-out and setting: under `COc1cc(OCC(=O)NCCOCCOCCNC(=O)COCC(=O)N[C@H](C(=O)N2C[C@H](O)C[C@H]2C(=O)NCc2ccc(-c3scnc3C)cc2)C(C)(C)C)ccc1CNC(=O)c1cccc(NCc2nnc(-c3ccncn3)n2C)c1` [Compound D94] stands 100 to 1000 nM; under `COc1cc(OCC(=O)NCCOCCOCC(=O)N[C@H](C(=O)N2C[C@H](O)C[C@H]2C(=O)NCc2ccc(-c3scnc3C)cc2)C(C)(C)C)ccc1CNC(=O)c1cccc(NCc2nnc(-c3ccncn3)n2C)c1` [Compound D95], < 100 nM.
On the same count and under the same terms, under `Cc1ncsc1-c1ccc(CNC(=O)[C@@H]2C[C@@H](O)CN2C(=O)[C@@H](NC(=O)CCCCCOCCCCCOCCCCCCOc2cccc(CNC(=O)c3cccc(NCc4nnc(-c5ccncn5)n4C)c3)c2)C(C)(C)C)cc1` [Compound D98] stands < 100 nM.
Consider `C[C@@H](NC(=O)c1cccc(NCc2nnc(-c3ccncn3)n2C)c1)c1cccc(OCCCCCCOCCOCCOCCCCCC(=O)N2CCN(c3ccc4c(c3)CN(C3CCC(=O)NC3=O)C4=O)CC2)c1` (stereo partly drawn) [Compound D191, N-((1R)-1-(3-((6-(2-(2-((6-(4-(2-(2,6-dioxopiperidin-3-yl)-1-oxoisoindolin-5-yl)piperazin-1-yl)-6-oxohexyl)oxy)ethoxy)ethoxy)hexyl)oxy)phenyl)ethyl)-3-(((4-methyl-5-(pyrimidin-4-yl)-4H-1,2,4-triazol-3-yl)methyl)amino)benzamide], for which the IC50 in assay [5] is 24.9 nM; in assay [3] (setting [9]), 0.32 µM; in assay [4] (setting [10]) it was > 30 µM. For the same molecule, the inhibition at 0.3 µM in assay [2] (setting [6]) was 36.7%. In assay [2] (setting [7]), the inhibition at 1 µM came out at 78.1%. Besides, the inhibition at 3 µM in assay [2] (setting [8]) turned out to be 86%.
With `C[C@@H](NC(=O)c1cccc(NCc2nnc(-c3ccncn3)n2C)c1)c1cccc(OCCCCCOCCCOCCNc2cccc3c2CN(C2CCC(=O)NC2=O)C3=O)c1` (stereo partly drawn) [Compound D196, N-((1R)-1-(3-(5-(3-(2-(2-(2,6-dioxopiperidin-3-yl)-1-oxoisoindolin-4-ylamino)ethoxy)propoxy)pentyloxy)phenyl)ethyl)-3-((4-methyl-5-(pyrimidin-4-yl)-4H-1,2,4-triazol-3-yl)methylamino)benzamide], the IC50 was 23.8 nM in assay [5], 0.36 µM in assay [3] (setting [9]) and > 30 µM in assay [4] (setting [10]). Also, the inhibition at 0.3 µM in assay [2] (setting [6]) came out at 66.2%. The inhibition at 1 µM in assay [2] (setting [7]) was found to be 71.1%. The inhibition at 3 µM in assay [2] (setting [8]) is 38.9%.
Consider `Cn1c(CNc2cccc(C(=O)NCc3cc(OCCCCCOCCCOCC(=O)Nc4cccc5c4CN(C4CCC(=O)NC4=O)C5=O)ccc3F)c2)nnc1-c1ccncn1` (stereo not drawn) [Compound D197, N-(5-(5-(3-(2-(2-(2,6-dioxopiperidin-3-yl)-1-oxoisoindolin-4-ylamino)-2-oxoethoxy)propoxy)pentyloxy)-2-fluorobenzyl)-3-((4-methyl-5-(pyrimidin-4-yl)-4H-1,2,4-triazol-3-yl)methylamino)benzamide], for which the figures for the IC50 in assay [5], in assay [3] (setting [9]) and in assay [4] (setting [10]) were 82.3 nM, 5.89 µM and > 30 µM, respectively. In assay [2] (setting [6]), the inhibition at 0.3 µM is -6.8%. In addition, the inhibition at 1 µM in assay [2] (setting [7]) is 27.7%. Also, the inhibition at 3 µM in assay [2] (setting [8]) was 54.5%.
As for `C[C@@H](NC(=O)c1cccc(NCc2nnc(-c3ccncn3)n2C)c1)c1cccc(OCCCCCOCCCOCCOc2cccc3c2CN(C2CCC(=O)NC2=O)C3=O)c1` (stereo partly drawn) [Compound D198, N-((1R)-1-(3-((5-(3-(2-((2-(2,6-dioxopiperidin-3-yl)-1-oxoisoindolin-4-yl)oxy)ethoxy)propoxy)pentyl)oxy)phenyl)ethyl)-3-(((4-methyl-5-(pyrimidin-4-yl)-4H-1,2,4-triazol-3-yl)methyl)amino)benzamide], the figures for the IC50 in assay [5], in assay [3] (setting [9]) and in assay [4] (setting [10]) were 22.1 nM, 0.01 µM and > 30 µM, respectively. Also, in assay [2] (setting [6]), the inhibition at 0.3 µM stood at 83.9%. Besides, the inhibition at 1 µM in assay [2] (setting [7]) worked out at 81.6%. In assay [2] (setting [8]), the inhibition at 3 µM was found to be 50.3%.
